Counter-ions that a name gives are not always drawn.
Target: T1, human GPR120 (Homo sapiens, UniProt Q5NUL3)
T1 construct: expressed in transfected cells; host or cells: CHO-K1
T1 sequence (Q5NUL3 1-361): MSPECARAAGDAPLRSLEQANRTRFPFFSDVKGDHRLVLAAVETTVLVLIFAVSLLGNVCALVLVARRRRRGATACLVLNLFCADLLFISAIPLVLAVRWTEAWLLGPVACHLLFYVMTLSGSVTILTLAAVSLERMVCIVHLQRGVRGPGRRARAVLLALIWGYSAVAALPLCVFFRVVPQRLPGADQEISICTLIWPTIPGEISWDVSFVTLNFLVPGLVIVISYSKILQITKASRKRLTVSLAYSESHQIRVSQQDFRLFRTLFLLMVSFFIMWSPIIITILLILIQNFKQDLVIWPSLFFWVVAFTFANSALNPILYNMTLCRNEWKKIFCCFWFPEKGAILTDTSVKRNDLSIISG
Experiment: Human GPR120 IP1 assay (inositol phosphate turnover)
Type: cell-based
Conditions: IP1 accumulation in CHO-K1 cells stably expressing the short form of human GPR120
Summary of the method: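 Human receptor (short form) was stably expressed in CHO-K1 cells and rat receptor in HEK293 cells. Cells were exposed to compound for 60 min at 37° C in kit stimulation buffer. IP1 was quantified by HTRF 665/620 nm ratio against a standard curve, normalized to a reference compound, with EC50 from 4-parameter fits.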

Row | SMILES | EC50 [nM]
1 | Oc1cc(-c2ccc(O[C@H]3C[C@@H](COc4ccccc4)C3)nc2)on1 [Example 82, 5-(3-hydroxyisoxazol-5-yl)-2-{[cis-3-(phenoxymethyl)cyclobutyl]oxy}pyridinium chloride] | 7.1
2 | Oc1cc(-c2cnc(O[C@H]3C[C@@H](COc4ccccc4)C3)cn2)on1 [Example 83, sodium 5-(5-{[cis-3-(phenoxymethyl)cyclobutyl]oxy}pyrazin-2-yl)isoxazol-3-olate] | 17
3 | Oc1cc(-c2cnc(O[C@H]3C[C@@H](COc4cccc(F)c4)C3)cn2)on1 [Example 84, sodium 5-[5-({cis-3-[(3-fluorophenoxy)methyl]cyclobutyl}oxy)pyrazin-2-yl]isoxazol-3-olate] | 12
4 | Oc1cc(-c2cnc(O[C@H]3C[C@@H](COc4ccccc4F)C3)cn2)on1 [Example 85, sodium 5-[5-({cis-3-[(2-fluorophenoxy)methyl]cyclobutyl}oxy)pyrazin-2-yl]isoxazol-3-olate] | 25
5 | CCOc1cc([C@]2(F)C[C@@H](Oc3ccc(-c4cc(O)no4)cn3)C2)ccn1 [Example 86, sodium 5-(6-{[cis-3-(2-ethoxypyridin-4-yl)-3-fluoro-cyclobutyl]oxy}pyridin-3-yl)isoxazol-3-olate] | 26
6 | Oc1cc(-c2ccc(O[C@H]3C[C@](F)(c4ccnc(OC5CC5)c4)C3)nc2)on1 [Example 90] | 22
7 | CC1[C@@H](Oc2cnc(-c3cc(O)no3)cn2)C[C@H]1c1ccccc1 (stereo partly drawn) [Example 92, 5-(5-{[(1S,3R)-2-methyl-3-phenylcyclobutyl]oxy}pyrazin-2-yl)isoxazol-3-ol] | 17
8 | CC1(c2ccc(Cl)cc2)CC(Oc2cnc(-c3cc(O)no3)cn2)C1 (centres unmarked) [Example 93, 5-(5-{[3-(4-chlorophenyl)-3-methylcyclobutyl]oxy}pyrazin-2-yl)isoxazol-3-ol] | 215
9 | Oc1cc(-c2ccc(O[C@H]3C[C@@](F)(c4ccc(C(F)(F)F)cn4)C3)nc2)on1 [Example 97, 2-(trans-1-fluoro-3-{[5-(3-hydroxyisoxazol-5-yl)pyridin-2-yl]oxy}cyclobutyl)-5-(trifluoromethyl)pyridinium trifluoroacetate] | 22
10 | CCOc1cc([C@]2(F)C[C@H](Oc3ccc(-c4cc(O)no4)cn3)C2)ccn1 [Example 98, Sodium 5-(6-{[trans-3-(2-ethoxypyridin-4-yl)-3-fluorocyclobutyl]oxy}pyridin-3-yl)isoxazol-3-olate] | 15
11 | CC(C)Oc1cc([C@]2(F)C[C@@H](Oc3ccc(-c4cc(O)no4)cn3)C2)ccn1 [Example 99, sodium 5-[6-({cis-3-fluoro-3-[2-(propan-2-yloxy)pyridin-4-yl]cyclobutyl}oxy)pyridin-3-yl]isoxazol-3-olate] | 17
12 | CC(C)Oc1cc([C@]2(F)C[C@@H](Oc3cnc(-c4cc(O)no4)cn3)C2)ccn1 [Example 100, sodium 5-[5-({cis-3-fluoro-3-[2-(propan-2-yloxy)pyridin-4-yl]cyclobutyl}oxy)pyrazin-2-yl]isoxazol-3-olate] | 153
13 | CC(C)Oc1cc([C@]2(F)C[C@H](Oc3cnc(-c4cc(O)no4)cn3)C2)ccn1 [Example 101, sodium 5-[5-({trans-3-fluoro-3-[2-(propan-2-yloxy)pyridin-4-yl]cyclobutyl}oxy)pyrazin-2-yl]isoxazol-3-olate] | 538
14 | Oc1cc(-c2ccc(O[C@H]3C[C@@](F)(c4ccc(C(F)F)c(F)c4)C3)nc2)on1 [Example 103, 5-[6-({trans-3-[4-(difluoromethyl)-3-fluorophenyl]-3-fluorocyclobutyl}oxy)pyridin-3-yl)isoxazol-3-ol] | 40
15 | Oc1cc(-c2ccc(O[C@H]3C[C@@](F)(c4ccc5c(c4)OC(F)(F)O5)C3)nc2)on1 [Example 104, ammonium 5-(6-{[trans-3-(2,2-difluoro-1,3-benzodioxol-5-yl)-3-fluorocyclobutyl]oxy}pyridin-3-yl)isoxazol-3-olate] | 60
16 | Oc1cc(-c2cnc(O[C@H]3C[C@@](F)(c4nc5ccccc5s4)C3)cn2)on1 [Example 105, ammonium 5-(5-{[trans-3-(1,3-benzothiazol-2-yl)-3-fluorocyclobutyl]oxy}pyrazin-2-yl)isoxazol-3-olate] | 237
17 | Oc1cc(-c2cnc(O[C@H]3C[C@](F)(c4cc(OC(F)(F)F)ccc4F)C3)cn2)on1 [Example 106, 5-[5-({cis-3-fluoro-3-[2-fluoro-5-(trifluoromethoxy)phenyl]cyclobutyl}oxy)pyrazin-2-yl]isoxazol-3-ol] | 91
18 | Oc1cc(-c2cnc(O[C@H]3C[C@@](F)(c4cc(C(F)(F)F)ccc4F)C3)cn2)on1 [Example 107, 5-[5-({trans-3-fluoro-3-[2-fluoro-5-(trifluoromethyl)phenyl]cyclobutyl}oxy)pyrazin-2-yl]isoxazol-3-ol] | 215
19 | Oc1cc(-c2cnc(O[C@H]3C[C@@](F)(c4ccc(Cl)cc4)C3)cn2)on1 [Example 108, 5-(5-{[trans-3-(4-chlorophenyl)-3-fluorocyclobutyl]oxy}pyrazin-2-yl)isoxazol-3-ol] | 14
20 | Oc1cc(-c2cnc(O[C@H]3C[C@@H](c4ccc(Cl)cc4)C3)nc2)on1 [Example 109, 5-(2-{[cis-3-(4-chlorophenyl)cyclobutyl]oxy}pyrimidin-5-yl)isoxazol-3-ol] | 11
21 | Oc1cc(-c2cnc(O[C@H]3C[C@@H](c4ccc(F)cc4)C3)nc2)on1 [Example 112, 5-(2-{[cis-3-(4-fluorophenyl)cyclobutyl]oxy}pyrimidin-5-yl)isoxazol-3-ol] | 647
22 | Oc1cc(-c2cnc(OC3CC(c4ccc5c(c4)OC(F)(F)O5)C3)nc2)on1 (centres unmarked) [Example 113, sodium 5-(2-{[3-(2,2-difluoro-1,3-benzodioxol-5-yl)cyclobutyl]oxy}pyrimidin-5-yl)isoxazol-3-olate] | 41
23 | Cc1ccc([C@H]2C[C@@H](Oc3ncc(-c4cc(O)no4)cn3)C2)c(F)c1 [Example 114, sodium 5-(2-{[cis-3-(2-fluoro-4-methylphenyl)cyclobutyl]oxy}pyrimidin-5-yl)isoxazol-3-olate] | 191
